Literature values as cited in US20060134172A1, “Agents which regulate, inhibit, or modulate the activity and/or expression of lysyl oxidase (LOX) and LOX-like proteases as a unique means to both lower intraocular pressure and treat glaucomatous retinopathies/optic neuropathies” (Alcon, Inc., priority 2004, published 2006).

Biological target: T1, lysyl oxidase (Homo sapiens, UniProt P28300)
T1 sequence (P28300 169-417): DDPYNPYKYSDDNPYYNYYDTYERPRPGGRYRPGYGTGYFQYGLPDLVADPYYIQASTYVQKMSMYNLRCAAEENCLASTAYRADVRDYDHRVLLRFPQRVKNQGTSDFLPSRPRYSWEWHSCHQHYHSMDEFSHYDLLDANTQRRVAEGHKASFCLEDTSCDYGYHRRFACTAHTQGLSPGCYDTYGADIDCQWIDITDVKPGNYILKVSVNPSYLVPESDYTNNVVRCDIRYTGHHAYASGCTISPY
Settings: known from U.S. Pat. No. 4,444,787

N#CCCN [β-aminopropionitrile (BAPN), β-aminopropionitrile]
in vitro inhibition of lysyl oxidase: inhibition
